US20070208005A1, “TETRAHYDROBENZAZEPINES AS ANTAGONISTS AND/OR REVERSE AGONISTS OF THE HISTAMINE H3 RECEPTOR” (priority 2004, published 2007)

Molecular target: T1, histamine H3 receptor (Homo sapiens, UniProt Q9Y5N1)
T1 construct: expressed in transfected cells; host or cells: CHO K1 cells (pSwitch/pGene GeneSwitch system, mifepristone-induced), clone 3H3; membranes
Test: Histamine H3 functional antagonist assay ([35S]-GTPγS SPA on membranes of H3 cells)
Type: biochemical
Settings: membrane prepared from cultured H3 cells (CHO K1, human H3); histamine at EC80; averages of a number of experiments; read-out: functional pKi (fpKi), H3 functional antagonist assay (converted)
Description: A membrane preparation containing histamine H3 receptors may be prepared in accordance with the following procedures:
(i) Generation of Histamine H3 Cell Line
DNA encoding the human histamine H3 gene (Huvar, A. et al. (1999) Mol. Pharmacol. 55(6), 1101-1107) was cloned into a holding vector, pcDNA3.1 TOPO (InVitrogen) and its cDNA was isolated from this vector by restriction digestion of plasmid DNA with the enzymes BamH1 and Not-1 and ligated into the inducible expression vector pGene (InVitrogen) digested with the same enzymes. The GeneSwitch™ system (a system where in transgene expression is switched off in the absence of an inducer and switched on in the presence of an inducer) was performed as described in U.S. Pat. Nos. 5,364,791; 5,874,534; and 5,935,934. Ligated DNA was transformed into competent DH5α E. coli host bacterial cells and plated onto Luria Broth (LB) agar containing Zeocin™ (an antibiotic which allows the selection of cells expressing the sh ble gene which is present on pGene and pSwitch) at 50 μg ml^−1. Colonies containing the re-ligated plasmid were identified by restriction analysis. DNA for transfection into mammalian cells was prepared from 250 ml cultures of the host bacterium containing the pGeneH3 plasmid and isolated using a DNA preparation kit (Qiagen Midi-Prep) as per manufacturers guidelines (Qiagen). CHO K1 cells previously transfected with the pSwitch regulatory plasmid (InVitrogen) were seeded at 2×10e6 cells per T75 flask in Complete Medium, containing Hams F12 (GIBCOBRL, Life Technologies) medium supplemented with 10% v/v dialysed foetal bovine serum, L-glutamine, and hygromycin (100 μg ml^−1), 24 hours prior to use. Plasmid DNA was transfected into the cells using Lipofectamine plus according to the manufacturers guidelines (InVitrogen). 48 hours post transfection cells were placed into complete medium supplemented with 500 μg ml^−1 Zeocin™.
10-14 days post selection 10 nM Mifepristone (InVitrogen), was added to the culture medium to induce the expression of the receptor. 18 hours post induction cells were detached from the flask using ethylenediamine tetra-acetic acid (EDTA; 1:5000; InVitrogen), following several washes with phosphate buffered saline pH 7.4 and resuspended in Sorting Medium containing Minimum Essential Medium (MEM), without phenol red, and supplemented with Earles salts and 3% Foetal Clone II (Hyclone). Approximately 1×10e7 cells were examined for receptor expression by staining with a rabbit polyclonal antibody, 4a, raised against the N-terminal domain of the histamine H3 receptor, incubated on ice for 60 minutes, followed by two washes in sorting medium. Receptor bound antibody was detected by incubation of the cells for 60 minutes on ice with a goat anti rabbit antibody, conjugated with Alexa 488 fluorescence marker (Molecular Probes). Following two further washes with Sorting Medium, cells were filtered through a 50 μm Filcon™ (BD Biosciences) and then analysed on a FACS Vantage SE Flow Cytometer fitted with an Automatic Cell Deposition Unit. Control cells were non-induced cells treated in a similar manner. Positively stained cells were sorted as single cells into 96-well plates, containing Complete Medium containing 500 μg ml^−1 Zeocin™ and allowed to expand before reanalysis for receptor expression via antibody and ligand binding studies. One clone, 3H3, was selected for membrane preparation.
(ii) Membrane Preparation from Cultured Cells
All steps of the protocol are carried out at 4° C. and with pre-cooled reagents. The cell pellet is resuspended in 10 volumes of homogenisation buffer (50 mM N-2-hydroxyethylpiperazine-N′-2-ethanesulfonic acid (HEPES), 1 mM ethylenediamine tetra-acetic acid (EDTA), pH 7.4 with KOH, supplemented with 10e-6M leupeptin (acetyl-leucyl-leucyl-arginal; Sigma L2884), 25 μg/ml bacitracin (Sigma B0125), 1 mM phenylmethylsulfonyl fluoride (PMSF) and 2×10e-6M pepstain A (Sigma)). […]

T1 sequence (Q9Y5N1 whole entry): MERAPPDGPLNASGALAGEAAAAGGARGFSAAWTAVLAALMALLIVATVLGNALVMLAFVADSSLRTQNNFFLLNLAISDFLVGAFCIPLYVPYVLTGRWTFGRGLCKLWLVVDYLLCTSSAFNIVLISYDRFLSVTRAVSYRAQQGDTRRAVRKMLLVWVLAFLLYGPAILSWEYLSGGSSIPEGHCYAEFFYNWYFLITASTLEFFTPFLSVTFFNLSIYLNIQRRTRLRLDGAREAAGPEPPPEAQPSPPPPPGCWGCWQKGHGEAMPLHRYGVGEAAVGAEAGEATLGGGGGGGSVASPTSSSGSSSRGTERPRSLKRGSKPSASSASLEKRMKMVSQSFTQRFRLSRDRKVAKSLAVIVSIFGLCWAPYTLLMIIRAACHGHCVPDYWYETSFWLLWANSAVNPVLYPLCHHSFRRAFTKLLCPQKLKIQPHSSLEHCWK

Cc1noc(-c2ccc(Cc3ccc4c(c3)CCN(C3CCC3)CC4)cc2)n1 [Example E13, 3-Cyclobutyl-7-{[4-(3-methyl-1,2,4-oxadiazol-5-yl)phenyl]methyl}-2,3,4,5-tetrahydro-1H-3-benzazepine]
Ki: < 0.316 nM

CNC(=O)c1ccc(Cc2ccc3c(c2)CCN(C2CCC2)CC3)cn1 [Example E26, 5-[(3-Cyclobutyl-2,3,4,5-tetrahydro-1H-3-benzazepin-7-yl)methyl]-N-methyl-2-pyridinecarboxamide]
Ki: < 3.16 nM

O=C(c1ccc(Cc2ccc3c(c2)CCN(C2CCC2)CC3)nc1)N1CCCC1 [Example E43, 3-cyclobutyl-7-{[5-(1-pyrrolidinylcarbonyl)-2-pyridinyl]methyl}-2,3,4,5-tetrahydro-1H-3-benzazepine]
Ki: < 3.16 nM

c1cc(-c2csnn2)ccc1Cc1ccc2c(c1)CCN(C1CCC1)CC2 [Example E57, 3-cyclobutyl-7-{[4-(1,2,3-thiadiazol-4-yl)phenyl]methyl}-2,3,4,5-tetrahydro-1H-3-benzazepine]
Ki: < 0.316 nM

CC(=O)Nc1cnc(Cc2ccc3c(c2)CCN(C2CCC2)CC3)cn1 [Example E32, N-{5-[(3-Cyclobutyl-2,3,4,5-tetrahydro-1H-3-benzazepin-7-yl)methyl]-2-pyrazinyl}acetamide]
Ki: < 3.16 nM

CNC(=O)c1ccc(Cc2ccc3c(c2)CCN(C2CCC2)CC3)nc1 [Example E42, 6-[(3-cyclobutyl-2,3,4,5-tetrahydro-1H-3-benzazepin-7-yl)methyl]-N-methyl-3-pyridinecarboxamide]
Ki: < 3.16 nM

NC(=O)c1ccc(Cc2ccc3c(c2)CCN(C2CCC2)CC3)nc1 [Example E44, 6-[(3-cyclobutyl-2,3,4,5-tetrahydro-1H-3-benzazepin-7-yl)methyl]-3-pyridinecarboxamide]
Ki: < 3.16 nM

CNC(=O)c1cnc(Cc2ccc3c(c2)CCN(C2CCCC2)CC3)cn1 [Example E35, 5-[(3-Cyclopentyl-2,3,4,5-tetrahydro-1H-3-benzazepin-7-yl)methyl]-N-methyl-2-pyrazinecarboxamide]
Ki: < 3.16 nM

N#Cc1ccc(NC(=O)c2ccc(Cc3ccc4c(c3)CCN(C3CCC3)CC4)cn2)cc1 [Example E56, N-(4-cyanophenyl)-5-[(3-cyclobutyl-2,3,4,5-tetrahydro-1H-3-benzazepin-7-yl)methyl]-2-pyridinecarboxamide]
Ki: < 3.16 nM

O=C1CCCN1c1ccc(Cc2ccc3c(c2)CCN(C2CCC2)CC3)cn1 [Example E29, 1-{5-[(3-Cyclobutyl-2,3,4,5-tetrahydro-1H-3-benzazepin-7-yl)methyl]-2-pyridinyl}-2-pyrrolidinone]
Ki: < 3.16 nM

O=C(c1cnc(Cc2ccc3c(c2)CCN(C2CCC2)CC3)cn1)N1CCCC1 [Example E20, 3-Cyclobutyl-7-{[5-(1-pyrrolidinylcarbonyl)-2-pyrazinyl]methyl}-2,3,4,5-tetrahydro-1H-3-benzazepine]
Ki: < 3.16 nM

O=C1CCCN1c1ccc(Cc2ccc3c(c2)CCN(C2CCCC2)CC3)cn1 [Example E37, 1-{5-[(3-cyclopentyl-2,3,4,5-tetrahydro-1H-3-benzazepin-7-yl)methyl]-2-pyridinyl}-2-pyrrolidinone]
Ki: < 3.16 nM

CC(C)NC(=O)c1ccc(Cc2ccc3c(c2)CCN(C2CCC2)CC3)cc1 [Example E51, 4-[(3-cyclobutyl-2,3,4,5-tetrahydro-1H-3-benzazepin-7-yl)methyl]-N-(1-methylethyl)benzamide]
Ki: < 3.16 nM

CN1CCN(c2ccc(Cc3ccc4c(c3)CCN(C3CCC3)CC4)cn2)C1=O [Example E40, 1-{5-[(3-Cyclobutyl-2,3,4,5-tetrahydro-1H-3-benzazepin-7-yl)methyl]-2-pyridinyl}-3-methyl-2-imidazolidinone]
Ki: < 3.16 nM

O=C(NC1CCOCC1)c1ccc(Cc2ccc3c(c2)CCN(C2CCC2)CC3)cn1 [Example E55, 5-[(3-cyclobutyl-2,3,4,5-tetrahydro-1H-3-benzazepin-7-yl)methyl]-N-(tetrahydro-2H-pyran-4-yl)-2-pyridinecarboxamide]
Ki: < 3.16 nM

CC(C)NC(=O)c1cnc(Cc2ccc3c(c2)CCN(C2CCC2)CC3)cn1 [Example E21, 5-[(3-Cyclobutyl-2,3,4,5-tetrahydro-1H-3-benzazepin-7-yl)methyl]-N-(1-methylethyl)-2-pyrazinecarboxamide]
Ki: < 3.16 nM

Cc1noc(-c2ccc(Cc3ccc4c(c3)CCN(C3CCC3)CC4)nc2)n1 [Example E16, 3-Cyclobutyl-7-{[5-(3-methyl-1,2,4-oxadiazol-5-yl)-2-pyridinyl]methyl}-2,3,4,5-tetrahydro-1H-3-benzazepine]
Ki: < 3.16 nM
